Source: patent US12600726B2, “Antagonists of the muscarinic acetylcholine receptor M4” (Vanderbilt University, priority 2017, dated 2026)

Tests used:
Rat M4 = target: T1, Rat M4 (Rattus norvegicus, UniProt P08485); assay: mAChR M4 cell-based functional calcium flux assay (rat M4/Gqi5/CHO cells); settings: for Emin (rat M4): % ACh maximum at 30 μM
T1 construct: expressed in transfected cells; host or cells: CHO-K1 (ATCC), stably expressing M4 and Gqi5
T1 sequence (P08485 1-478): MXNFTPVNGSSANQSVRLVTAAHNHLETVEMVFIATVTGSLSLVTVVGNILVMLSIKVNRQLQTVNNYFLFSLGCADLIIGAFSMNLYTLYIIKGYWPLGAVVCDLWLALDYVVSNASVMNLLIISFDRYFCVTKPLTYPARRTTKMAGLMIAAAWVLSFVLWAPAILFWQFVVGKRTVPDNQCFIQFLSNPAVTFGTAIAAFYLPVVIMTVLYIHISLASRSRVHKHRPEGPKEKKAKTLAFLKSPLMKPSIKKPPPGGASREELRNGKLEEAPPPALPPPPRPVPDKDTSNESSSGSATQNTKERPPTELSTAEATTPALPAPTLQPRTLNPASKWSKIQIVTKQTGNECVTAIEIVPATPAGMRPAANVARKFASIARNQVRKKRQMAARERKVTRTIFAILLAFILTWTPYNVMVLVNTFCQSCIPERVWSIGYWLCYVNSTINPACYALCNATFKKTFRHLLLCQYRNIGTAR
Description: (§1) Human, rat, or mouse M4. cDNA, along with the chimeric G protein Gqi5, were transfected into Chinese hamster ovary (CHO-K1) cells purchased from the American Type Culture Collection using Lipofectamine2000. M4/Gqi5/CHO cells were grown in Ham's F-12 medium containing 10% heat-inactivated fetal bovine serum (FBS), 20 mM HEPES, 500 μg/mL G418 sulfate, and 200 μg/mL Hygromycin B.
(§2) For high throughput measurement of agonist-evoked increases in intracellular calcium, CHO-K1 cells stably expressing muscarinic receptors were plated in growth medium lacking G418 and hygromycin at 15,000 cells/20 μL/well in Greiner 384-well black-walled, tissue culture (TC)-treated, clear-bottom plates (VWR). Cells were incubated overnight at 37° C. and 5% CO2. The next day, cells were washed using an ELX 405 (BioTek) with assay buffer; the final volume was then aspirated to 20 μL. Next, 20 μL of a 2.3 μM stock of Fluo-4/acetoxymethyl ester (Invitrogen, Carlsbad, CA), prepared as a 2.3 mM stock in DMSO and mixed in a 1:1 ratio with 10% (w/v) Pluronic F-127 and diluted in assay buffer, was added to the wells and the cell plates were incubated for 50 min at 37° C. and 5% CO2. Dye was removed by washing with the ELX 405 and the final volume was aspirated to 20 μL. Compound master plates were formatted in a 10 point concentration-response curve (CRC) format (1:3 dilutions) in 100% DMSO with a starting concentration of 10 or 1 mM using a BRAVO liquid handler (Agilent). Test compound CRCs were then transferred to daughter plates (240 nL) using the Echo acoustic plate reformatter (Labcyte, Sunnyvale, CA) and then diluted into assay buffer (40 μL) to a 2× stock using a Thermo Fisher Combi (Thermo Fisher Scientific, Waltham, MA).
(§3) Calcium flux was measured using the Functional Drug Screening System (FDSS) 6000 or 7000 (Hamamatsu Corporation, Tokyo, Japan) as an increase in the fluorescent static ratio. Compounds were applied to cells (20 μL, 2×) using the automated system of the FDSS at 2 seconds into the protocol and the data were collected at 1 Hz. At 143 s, 10 μL of an EC20 concentration of the muscarinic receptor agonist acetylcholine was added (5×), followed by the addition of 12 μL of an EC80 concentration of acetylcholine at the 268 s time point (5×). Agonist activity was analyzed as a concentration-dependent increase in calcium mobilization upon compound addition. Positive allosteric modulator activity was analyzed as a concentration-dependent increase in the EC20 acetylcholine response. Antagonist activity was analyzed as a concentration-dependent decrease in the EC80 acetylcholine response; for the purposes of the tables herein, an IC50 (inhibitory concentration 50) was calculated as a concentration-dependent decrease of the response elicited by an EC80 concentration of acetylcholine. Concentration-response curves were generated using a four-parameter logistical equation in XLFit curve fitting software (IDBS, Bridgewater, NJ) for Excel (Microsoft, Redmond, WA) or Prism (GraphPad Software, Inc., San Diego, CA) or the Dotmatics software platform (Dotmatics, Bishop's Stortford, UK).
(§4) Compounds were synthesized as described above. Activity (IC50 and Emin) was determined in the mAChR M4 cell-based functional assay as described above and the data are shown in Table 2 and Table 3. The compound number corresponds to the compound numbers used in the examples and Tables 1 and 1.1.

Human M4 = target: T2, Human M4 (Homo sapiens, UniProt P08173); assay: mAChR M4 cell-based functional calcium flux assay (human M4/Gqi5/CHO cells); settings: for Emin (human M4): % ACh maximum at 30 μM; for IC50: decrease of the response to an EC80 concentration of acetylcholine
T2 construct: expressed in transfected cells; host or cells: CHO-K1 (ATCC), stably expressing M4 and Gqi5
T2 sequence (P08173 1-479): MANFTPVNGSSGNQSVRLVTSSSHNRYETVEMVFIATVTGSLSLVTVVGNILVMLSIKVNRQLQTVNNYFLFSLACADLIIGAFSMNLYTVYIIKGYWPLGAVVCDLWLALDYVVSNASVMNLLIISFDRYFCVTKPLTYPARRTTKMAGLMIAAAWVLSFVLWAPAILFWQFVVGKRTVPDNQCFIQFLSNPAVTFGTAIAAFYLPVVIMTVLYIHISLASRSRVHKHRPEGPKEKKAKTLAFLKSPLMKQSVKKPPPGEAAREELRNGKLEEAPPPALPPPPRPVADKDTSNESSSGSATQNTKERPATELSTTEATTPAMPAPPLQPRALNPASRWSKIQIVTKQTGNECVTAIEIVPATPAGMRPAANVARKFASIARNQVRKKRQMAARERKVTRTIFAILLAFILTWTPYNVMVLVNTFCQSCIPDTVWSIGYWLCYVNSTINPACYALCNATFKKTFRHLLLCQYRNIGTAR
Description: as §1, §2, §3, §4

[1] = decrease of the response to an EC80 concentration of acetylcholine

With `O=C(Nc1ccc(-c2cc(F)ccc2Cl)nn1)C1CC12CCN(CC1CC3C=CC1C3)CC2` (centres unmarked) [Compound 18, 6-(5-bicyclo[2.2.1]hept-2-enylmethyl)-N-[6-(2-chloro-5-fluoro-phenyl)pyridazin-3-yl]-6-azaspiro[2.5]octane-2-carboxamide] the “Emin (rat M4)” value (Rat M4) was 4.72%, the IC50 (Rat M4; [1]) was 3.09 µM and the “Emin (human M4)” value (Human M4) was 3.46%. For the same compound, the IC50 (Human M4) was 0.87 µM.

For `CC(CN1CCC2(CC1)CC2C(=O)Nc1ccc(-c2cc(F)ccc2Cl)nn1)C(C)(C)C` (centres unmarked) [Compound 19, N-[6-(2-chloro-5-fluoro-phenyl)pyridazin-3-yl]-6-(2,3,3-trimethylbutyl)-6-azaspiro[2.5]octane-2-carboxamide], the “Emin (rat M4)” value (Rat M4) was 34.9%, the IC50 (Rat M4; cells printed in μM, decrease of the EC80 acetylcholine response) was over 10 µM and the “Emin (human M4)” value (Human M4) was 6.57%. The IC50 (Human M4) was 5.06 µM.

With `CC(C)(C)CCN1CCC2(CC1)CC2CNc1ccc(Cl)nn1` (centres unmarked) [Compound 20, 6-chloro-N-[[6-(3,3-dimethylbutyl)-6-azaspiro[2.5]octan-2-yl]methyl]pyridazin-3-amine] the “Emin (rat M4)” value (Rat M4) was 5.14%, the IC50 (Rat M4; [1]) was 1.09 µM and the “Emin (human M4)” value (Human M4) was 3.47%. The IC50 (Human M4) was 0.27 µM.

With `Cc1nn(C)cc1-c1cnc(NCC2CC23CCN(CC2CC4C=CC2C4)CC3)cn1` (centres unmarked) [Compound 21, N-[[6-(5-bicyclo[2.2.1]hept-2-enylmethyl)-6-azaspiro[2.5]octan-2-yl]methyl]-5-(1,3-dimethylpyrazol-4-yl)pyrazin-2-amine] the “Emin (rat M4)” value (Rat M4) was 4.56%, the IC50 (Rat M4; [1]) was 0.191 µM and the “Emin (human M4)” value (Human M4) was 3.65%. For the same compound, the IC50 (Human M4) was 0.0301 µM.

In the case of `Cc1nn(C)cc1-c1cnc(NCC2CC23CCN(CC(C)C(C)(C)C)CC3)cn1` (centres unmarked) [Compound 22, 5-(1,3-dimethylpyrazol-4-yl)-N-[[6-(2,3,3-trimethylbutyl)-6-azaspiro[2.5]octan-2-yl]methyl]pyrazin-2-amine], the “Emin (rat M4)” value (Rat M4) is reported as 4.67%, the IC50 (Rat M4; [1]) is reported as 0.404 µM and the “Emin (human M4)” value (Human M4) is reported as 3.25%. It also gave an IC50 (Human M4) of 0.169 µM.

With `Cc1nn(C)cc1-c1cnc(NCC2CC23CCN(CCC(C)(C)C)CC3)cn1` (centres unmarked) [Compound 23, N-[[6-(3,3-dimethylbutyl)-6-azaspiro[2.5]octan-2-yl]methyl]-5-(1,3-dimethylpyrazol-4-yl)pyrazin-2-amine] the “Emin (rat M4)” value (Rat M4) was 4.71%, the IC50 (Rat M4; [1]) was 0.278 µM and the “Emin (human M4)” value (Human M4) was 2.71%. The IC50 (Human M4) was 0.0647 µM.

For `CC(C)(C)CCN1CCC2(CC1)CC2CNc1ccc(-c2ccc(F)cc2Cl)nn1` (centres unmarked) [Compound 24, 6-(2-chloro-4-fluoro-phenyl)-N-[[6-(3,3-dimethylbutyl)-6-azaspiro[2.5]octan-2-yl]methyl]pyridazin-3-amine], the “Emin (rat M4)” value (Rat M4) was 3.19%, the IC50 (Rat M4; [1]) was 0.159 µM and the “Emin (human M4)” value (Human M4) was 2.81%. The IC50 (Human M4) was 0.0428 µM.

With `Cc1ccncc1-c1ccc(NCC2CC23CCN(CCC(C)(C)C)CC3)nn1` (centres unmarked) [Compound 25, N-[[6-(3,3-dimethylbutyl)-6-azaspiro[2.5]octan-2-yl]methyl]-6-(4-methyl-3-pyridyl)pyridazin-3-amine] the “Emin (rat M4)” value (Rat M4) was 3.75%, the IC50 (Rat M4; [1]) was 0.0778 µM and the “Emin (human M4)” value (Human M4) was 2.93%. The IC50 (Human M4) was 0.00435 µM.

For `CC(C)(C)CCN1CCC2(CC1)CC2CNc1ccc(-c2ccccc2F)nn1` (centres unmarked) [Compound 26, N-[[6-(3,3-dimethylbutyl)-6-azaspiro[2.5]octan-2-yl]methyl]-6-(2-fluorophenyl)pyridazin-3-amine], the “Emin (rat M4)” value (Rat M4) was 3.40%, the IC50 (Rat M4; [1]) was 0.192 µM and the “Emin (human M4)” value (Human M4) was 2.98%. The IC50 (Human M4) was 0.0133 µM.

For `CC(C)(C)CCN1CCC2(CC1)CC2CNc1ccc(-c2cccc(F)c2)nn1` (centres unmarked) [Compound 27, N-[[6-(3,3-dimethylbutyl)-6-azaspiro[2.5]octan-2-yl]methyl]-6-(3-fluorophenyl)pyridazin-3-amine], the “Emin (rat M4)” value (Rat M4) was 3.07%, the IC50 (Rat M4; [1]) was 0.153 µM and the “Emin (human M4)” value (Human M4) was 3.18%. The IC50 (Human M4) was 0.0213 µM.

`CC(C)(C)CCN1CCC2(CC1)CC2CNc1ccc(-c2ccc(F)cc2F)nn1` (centres unmarked) [Compound 28, 6-(2,4-difluorophenyl)-N-[[6-(3,3-dimethylbutyl)-6-azaspiro[2.5]octan-2-yl]methyl]pyridazin-3-amine] was tested, and the “Emin (rat M4)” value (Rat M4) was 2.59%, the IC50 (Rat M4; [1]) was 0.261 µM and the “Emin (human M4)” value (Human M4) was 2.74%. It also gave an IC50 (Human M4) of 0.0557 µM.
